Values of other authors as cited in patent EP2818484A1, “Synergistic combination of an anti-IgE antibody and an EP2 receptor agonist” (Universitat Autònoma de Barcelona, priority 2013, dated 2014).

System: human lung mast cells
Details: Kay et al., British Journal of Pharmacology 2006, 147, 707

SMILES | activation of human lung mast cells
CCCCC[C@H](O)/C=C/[C@H]1[C@H](O)CC(=O)[C@@H]1C/C=C\CCCC(=O)O [PGE2] | inhibit activation
CCCC1([C@H](O)C/C=C/[C@H]2[C@H](O)CC(=O)[C@@H]2CCCCCCC(=O)OC)CCC1 [butaprost] | inhibit activation
